Values quoted from earlier work in paper PMC13291975, “Brighter NIR Bioluminescence System for Mammalian Cell Bioimaging Based on Engineered Railroadworm Luciferase and 6′-Aminoluciferin Analogues” (Chemical & Biomedical Imaging, 2026).

Target: T1, Phrixotrix hirtus railroadworm red-emitting luciferase (PxRE; RE-WT) (Phrixothrix hirtus, UniProt Q9U4U7)
T1 construct: N-terminal His-tag, pCold vector, expressed in E. coli BL21-DE3, Ni-agarose purified
Experiment: bioluminescence peak intensity, Lineweaver-Burk
Format: biochemical
Settings: read-out: K M LH2; ATP/MgSO4, 0.1 M Tris-HCl pH 8.0; kcat in relative luminometer counts; error not given, value possibly from the authors' earlier work; the text says 'Previously, we showed'
From the text: bioluminescence peak intensity, Lineweaver-Burk on Phrixotrix hirtus railroadworm red-emitting luciferase (PxRE; RE-WT)

T1 sequence (Q9U4U7 entry or part of it): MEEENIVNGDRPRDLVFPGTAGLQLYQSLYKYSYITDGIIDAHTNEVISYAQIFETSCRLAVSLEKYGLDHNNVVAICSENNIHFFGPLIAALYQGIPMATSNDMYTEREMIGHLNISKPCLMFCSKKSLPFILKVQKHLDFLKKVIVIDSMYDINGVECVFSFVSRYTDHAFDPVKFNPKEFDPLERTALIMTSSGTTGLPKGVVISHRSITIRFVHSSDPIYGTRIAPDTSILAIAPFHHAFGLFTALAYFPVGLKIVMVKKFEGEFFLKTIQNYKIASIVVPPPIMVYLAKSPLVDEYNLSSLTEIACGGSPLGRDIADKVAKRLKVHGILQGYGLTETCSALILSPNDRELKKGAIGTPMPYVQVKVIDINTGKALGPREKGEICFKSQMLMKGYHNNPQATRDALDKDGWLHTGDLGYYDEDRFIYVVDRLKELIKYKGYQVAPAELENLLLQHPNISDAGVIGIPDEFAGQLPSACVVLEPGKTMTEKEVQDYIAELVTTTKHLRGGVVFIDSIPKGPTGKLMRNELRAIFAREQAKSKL

O=C(O)[C@H]1CSC(c2nc3ccc(O)cc3s2)=N1 [LH2, D-luciferin]
Km: 7 µM
